Blank lines part the entries; values can stand above or below the compound they belong to.
Legend:
[1] = molecular target: Gamma-aminobutyric acid receptor subunit alpha-1/alpha-2/beta-2/gamma-2 (Homo sapiens, UniProt P14867+P18507+P47869+P47870); type: protein-complex assay
Adenosine receptor A2a = Adenosine receptor A2a (Homo sapiens, UniProt P29274)
[2] = molecular target: T1, Alpha-2C adrenergic receptor (Homo sapiens, UniProt P18825); type: functional
T1 sequence (P18825 whole entry): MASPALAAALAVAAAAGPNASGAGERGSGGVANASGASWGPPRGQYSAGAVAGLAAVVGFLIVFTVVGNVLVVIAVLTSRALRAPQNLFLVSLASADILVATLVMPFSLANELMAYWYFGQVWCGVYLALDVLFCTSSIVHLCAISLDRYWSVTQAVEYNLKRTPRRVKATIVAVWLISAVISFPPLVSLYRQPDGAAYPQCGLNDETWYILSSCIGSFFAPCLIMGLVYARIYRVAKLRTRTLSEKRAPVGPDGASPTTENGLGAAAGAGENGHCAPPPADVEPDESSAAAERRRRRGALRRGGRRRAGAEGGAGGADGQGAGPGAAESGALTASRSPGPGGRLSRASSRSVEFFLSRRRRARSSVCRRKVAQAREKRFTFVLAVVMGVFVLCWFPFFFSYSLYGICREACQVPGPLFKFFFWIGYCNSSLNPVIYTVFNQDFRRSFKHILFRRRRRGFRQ

[3] = molecular target: Beta-1 adrenergic receptor (Homo sapiens, UniProt P08588); type: functional
Beta-1 adrenergic receptor, sequence (P08588 whole entry): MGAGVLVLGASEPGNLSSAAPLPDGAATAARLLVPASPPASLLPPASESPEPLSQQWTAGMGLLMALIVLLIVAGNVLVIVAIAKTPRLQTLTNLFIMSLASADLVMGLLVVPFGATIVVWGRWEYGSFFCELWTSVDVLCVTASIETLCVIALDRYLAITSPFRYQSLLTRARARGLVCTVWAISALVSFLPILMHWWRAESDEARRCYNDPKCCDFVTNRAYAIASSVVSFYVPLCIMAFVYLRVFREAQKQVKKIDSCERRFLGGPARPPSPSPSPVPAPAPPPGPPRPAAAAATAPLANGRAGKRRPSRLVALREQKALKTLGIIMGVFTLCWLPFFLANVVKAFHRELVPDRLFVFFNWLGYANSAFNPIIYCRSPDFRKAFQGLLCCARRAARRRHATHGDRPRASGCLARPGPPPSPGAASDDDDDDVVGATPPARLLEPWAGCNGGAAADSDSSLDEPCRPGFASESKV

[4] = molecular target: T2, Gamma-aminobutyric acid receptor subunit alpha-1 (Rattus norvegicus, UniProt P62813)
T2 sequence (P62813 whole entry): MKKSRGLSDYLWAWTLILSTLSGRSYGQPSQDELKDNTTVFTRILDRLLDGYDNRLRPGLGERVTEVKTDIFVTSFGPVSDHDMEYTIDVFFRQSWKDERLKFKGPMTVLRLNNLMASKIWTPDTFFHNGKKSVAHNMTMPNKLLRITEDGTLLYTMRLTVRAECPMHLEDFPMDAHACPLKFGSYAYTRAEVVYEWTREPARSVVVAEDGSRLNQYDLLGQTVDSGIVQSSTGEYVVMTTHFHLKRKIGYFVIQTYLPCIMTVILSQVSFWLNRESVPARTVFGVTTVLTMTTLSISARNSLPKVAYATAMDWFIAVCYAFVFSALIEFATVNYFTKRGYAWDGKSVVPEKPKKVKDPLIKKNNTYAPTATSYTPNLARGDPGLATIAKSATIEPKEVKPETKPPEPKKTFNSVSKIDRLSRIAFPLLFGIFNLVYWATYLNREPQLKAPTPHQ

[5] = molecular target: T2, Gamma-aminobutyric acid receptor subunit alpha-1; type: functional
[6] = molecular target: Growth hormone secretagogue receptor type 1 (Homo sapiens, UniProt Q92847)
[7] = molecular target: Glutamate receptor ionotropic, NMDA 1 (Rattus norvegicus, UniProt P35439)
[8] = molecular target: 5-hydroxytryptamine receptor 2B (Homo sapiens, UniProt P41595); type: functional, cell-based
[9] = molecular target: T3, 5-hydroxytryptamine receptor 3A (Homo sapiens, UniProt P46098); type: functional
T3 sequence (P46098 whole entry): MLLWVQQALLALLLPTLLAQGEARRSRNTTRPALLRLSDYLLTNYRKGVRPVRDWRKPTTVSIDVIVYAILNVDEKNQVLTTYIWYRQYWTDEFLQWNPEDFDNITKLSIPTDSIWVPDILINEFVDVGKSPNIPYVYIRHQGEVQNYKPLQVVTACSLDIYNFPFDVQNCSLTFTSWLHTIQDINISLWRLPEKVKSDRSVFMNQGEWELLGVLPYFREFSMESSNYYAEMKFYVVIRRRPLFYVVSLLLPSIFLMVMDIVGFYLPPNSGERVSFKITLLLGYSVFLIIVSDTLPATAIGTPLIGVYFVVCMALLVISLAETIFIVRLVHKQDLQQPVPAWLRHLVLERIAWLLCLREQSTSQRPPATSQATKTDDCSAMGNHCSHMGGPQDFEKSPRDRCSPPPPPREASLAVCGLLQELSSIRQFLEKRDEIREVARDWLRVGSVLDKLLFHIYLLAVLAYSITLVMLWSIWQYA

Melanocortin receptor 3 = Melanocortin receptor 3 (Homo sapiens, UniProt P41968)
Melanocortin receptor 3, sequence (P41968 whole entry): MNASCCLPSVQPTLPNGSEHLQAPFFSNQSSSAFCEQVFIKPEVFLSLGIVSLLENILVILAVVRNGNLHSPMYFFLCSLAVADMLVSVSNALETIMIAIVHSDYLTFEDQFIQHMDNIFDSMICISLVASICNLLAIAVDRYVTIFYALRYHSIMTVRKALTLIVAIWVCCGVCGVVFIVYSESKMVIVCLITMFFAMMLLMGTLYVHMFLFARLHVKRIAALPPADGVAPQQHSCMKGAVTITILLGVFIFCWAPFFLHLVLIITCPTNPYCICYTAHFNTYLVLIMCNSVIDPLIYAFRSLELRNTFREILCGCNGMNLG

Motilin receptor = Motilin receptor (Homo sapiens, UniProt O43193)
[10] = molecular target: T4, Neuropeptide Y receptor type 1 (Homo sapiens, UniProt P25929)
T4 sequence (P25929 whole entry): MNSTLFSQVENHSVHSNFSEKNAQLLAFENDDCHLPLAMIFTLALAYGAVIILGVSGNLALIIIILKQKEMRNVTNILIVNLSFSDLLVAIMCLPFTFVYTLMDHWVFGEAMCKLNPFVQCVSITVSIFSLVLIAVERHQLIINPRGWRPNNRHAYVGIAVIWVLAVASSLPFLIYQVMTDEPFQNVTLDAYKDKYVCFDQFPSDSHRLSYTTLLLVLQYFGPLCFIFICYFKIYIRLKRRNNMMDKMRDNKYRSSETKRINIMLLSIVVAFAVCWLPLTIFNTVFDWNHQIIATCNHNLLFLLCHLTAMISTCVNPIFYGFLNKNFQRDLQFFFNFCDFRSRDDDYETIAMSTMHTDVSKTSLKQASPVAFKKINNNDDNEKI

[11] = molecular target: Kappa-type opioid receptor (Homo sapiens, UniProt P41145)
Thromboxane A2 receptor = molecular target: T5, Thromboxane A2 receptor (Homo sapiens, UniProt P21731)
T5 sequence (P21731 whole entry): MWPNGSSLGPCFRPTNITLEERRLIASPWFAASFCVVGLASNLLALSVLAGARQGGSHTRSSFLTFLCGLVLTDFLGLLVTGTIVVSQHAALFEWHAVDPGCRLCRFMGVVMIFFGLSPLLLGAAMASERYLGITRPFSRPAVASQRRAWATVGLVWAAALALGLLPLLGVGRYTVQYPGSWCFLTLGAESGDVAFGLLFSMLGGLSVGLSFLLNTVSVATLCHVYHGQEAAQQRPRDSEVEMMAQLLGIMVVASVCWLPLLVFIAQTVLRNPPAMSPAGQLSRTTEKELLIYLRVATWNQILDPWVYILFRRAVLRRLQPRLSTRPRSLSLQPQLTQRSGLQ

[12] = molecular target: Sodium-dependent dopamine transporter (Homo sapiens, UniProt Q01959)
[13] = molecular target: cGMP-inhibited 3',5'-cyclic phosphodiesterase 3A (Homo sapiens, UniProt Q14432); type: functional
cGMP-inhibited 3',5'-cyclic phosphodiesterase 3A, sequence (Q14432 whole entry): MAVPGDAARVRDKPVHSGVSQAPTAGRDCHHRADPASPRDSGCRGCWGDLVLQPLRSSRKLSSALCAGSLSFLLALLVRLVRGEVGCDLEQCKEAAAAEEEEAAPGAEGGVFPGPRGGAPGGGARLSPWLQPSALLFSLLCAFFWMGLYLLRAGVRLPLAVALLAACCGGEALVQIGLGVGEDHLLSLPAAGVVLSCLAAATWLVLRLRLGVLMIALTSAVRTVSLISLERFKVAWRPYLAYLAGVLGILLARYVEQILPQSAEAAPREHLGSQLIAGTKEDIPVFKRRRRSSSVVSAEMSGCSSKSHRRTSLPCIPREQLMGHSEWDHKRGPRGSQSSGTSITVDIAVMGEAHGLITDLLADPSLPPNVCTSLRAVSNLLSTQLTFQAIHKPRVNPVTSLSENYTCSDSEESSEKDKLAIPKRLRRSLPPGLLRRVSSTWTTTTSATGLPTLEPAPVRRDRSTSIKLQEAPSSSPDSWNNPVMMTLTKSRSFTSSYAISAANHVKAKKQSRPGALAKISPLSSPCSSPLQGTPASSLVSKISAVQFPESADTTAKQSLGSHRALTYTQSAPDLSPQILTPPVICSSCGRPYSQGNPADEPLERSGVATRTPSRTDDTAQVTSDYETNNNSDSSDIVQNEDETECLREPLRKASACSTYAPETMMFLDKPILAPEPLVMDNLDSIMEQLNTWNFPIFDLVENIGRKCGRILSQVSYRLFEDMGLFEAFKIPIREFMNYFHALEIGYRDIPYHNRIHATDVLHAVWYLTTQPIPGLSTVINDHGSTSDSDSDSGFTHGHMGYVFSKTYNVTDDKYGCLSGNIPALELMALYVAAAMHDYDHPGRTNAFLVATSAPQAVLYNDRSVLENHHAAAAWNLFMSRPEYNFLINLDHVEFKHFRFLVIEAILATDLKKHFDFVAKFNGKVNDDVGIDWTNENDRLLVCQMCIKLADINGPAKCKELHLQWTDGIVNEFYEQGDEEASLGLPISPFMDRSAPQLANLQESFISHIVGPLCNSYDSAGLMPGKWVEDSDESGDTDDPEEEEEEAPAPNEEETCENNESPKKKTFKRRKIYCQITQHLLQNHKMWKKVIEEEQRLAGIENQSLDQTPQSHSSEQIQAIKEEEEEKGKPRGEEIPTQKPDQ

D(3) dopamine receptor = D(3) dopamine receptor (Homo sapiens, UniProt P35462)
Further: assay procedure not described here.

Gamma-aminobutyric acid receptor subunit alpha-1/alpha-2/beta-2/gamma-2, sequence (P14867 whole entry): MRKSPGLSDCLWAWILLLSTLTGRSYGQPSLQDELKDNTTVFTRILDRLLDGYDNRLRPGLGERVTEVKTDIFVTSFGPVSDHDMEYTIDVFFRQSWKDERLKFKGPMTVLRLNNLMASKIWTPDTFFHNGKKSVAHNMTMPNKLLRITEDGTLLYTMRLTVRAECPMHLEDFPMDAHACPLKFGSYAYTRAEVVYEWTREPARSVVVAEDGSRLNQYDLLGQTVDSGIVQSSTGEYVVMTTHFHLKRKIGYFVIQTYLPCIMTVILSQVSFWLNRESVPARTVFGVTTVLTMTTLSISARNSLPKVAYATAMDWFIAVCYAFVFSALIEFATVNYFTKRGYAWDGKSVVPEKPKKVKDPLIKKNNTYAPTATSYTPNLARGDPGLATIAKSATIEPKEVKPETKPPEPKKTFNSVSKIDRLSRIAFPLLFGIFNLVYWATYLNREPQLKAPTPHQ
Gamma-aminobutyric acid receptor subunit alpha-1/alpha-2/beta-2/gamma-2, sequence (P47870 whole entry): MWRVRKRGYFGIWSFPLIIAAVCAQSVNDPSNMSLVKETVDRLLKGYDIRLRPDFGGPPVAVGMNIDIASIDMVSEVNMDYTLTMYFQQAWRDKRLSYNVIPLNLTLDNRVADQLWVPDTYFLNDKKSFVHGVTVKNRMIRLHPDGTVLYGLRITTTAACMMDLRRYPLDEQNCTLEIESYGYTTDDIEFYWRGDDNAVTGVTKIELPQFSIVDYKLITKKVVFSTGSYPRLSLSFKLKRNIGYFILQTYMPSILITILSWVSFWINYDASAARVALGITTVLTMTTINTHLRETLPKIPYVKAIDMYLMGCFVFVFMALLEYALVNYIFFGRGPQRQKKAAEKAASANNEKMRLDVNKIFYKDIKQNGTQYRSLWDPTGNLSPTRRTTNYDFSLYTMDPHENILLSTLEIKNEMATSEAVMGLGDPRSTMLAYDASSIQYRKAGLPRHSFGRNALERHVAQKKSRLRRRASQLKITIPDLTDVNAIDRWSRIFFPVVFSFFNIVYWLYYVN
Gamma-aminobutyric acid receptor subunit alpha-1/alpha-2/beta-2/gamma-2, sequence (P18507 whole entry): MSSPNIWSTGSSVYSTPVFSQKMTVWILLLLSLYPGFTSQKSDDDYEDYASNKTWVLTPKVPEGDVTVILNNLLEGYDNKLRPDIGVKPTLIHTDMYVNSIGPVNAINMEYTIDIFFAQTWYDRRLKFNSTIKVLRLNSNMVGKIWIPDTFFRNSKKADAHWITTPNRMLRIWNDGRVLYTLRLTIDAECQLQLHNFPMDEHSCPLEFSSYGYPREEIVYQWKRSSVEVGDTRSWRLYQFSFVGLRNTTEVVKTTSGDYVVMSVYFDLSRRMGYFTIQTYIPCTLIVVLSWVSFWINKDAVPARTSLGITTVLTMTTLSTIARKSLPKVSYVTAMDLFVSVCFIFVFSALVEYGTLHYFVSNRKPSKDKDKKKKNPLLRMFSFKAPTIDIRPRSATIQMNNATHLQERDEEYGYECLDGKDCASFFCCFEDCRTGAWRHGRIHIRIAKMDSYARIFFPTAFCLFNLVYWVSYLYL
Gamma-aminobutyric acid receptor subunit alpha-1/alpha-2/beta-2/gamma-2, sequence (P47869 whole entry): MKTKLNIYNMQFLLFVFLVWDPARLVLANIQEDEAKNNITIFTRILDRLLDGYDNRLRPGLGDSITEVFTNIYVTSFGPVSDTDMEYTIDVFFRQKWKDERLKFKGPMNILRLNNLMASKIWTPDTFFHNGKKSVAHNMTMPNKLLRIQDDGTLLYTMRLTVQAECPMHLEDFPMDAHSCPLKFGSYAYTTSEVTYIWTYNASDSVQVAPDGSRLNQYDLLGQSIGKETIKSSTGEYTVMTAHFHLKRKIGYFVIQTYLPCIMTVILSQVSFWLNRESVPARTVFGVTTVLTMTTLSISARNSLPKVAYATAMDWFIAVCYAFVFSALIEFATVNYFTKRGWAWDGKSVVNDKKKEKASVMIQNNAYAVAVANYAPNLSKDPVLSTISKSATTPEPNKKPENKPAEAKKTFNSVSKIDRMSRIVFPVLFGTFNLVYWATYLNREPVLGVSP
Adenosine receptor A2a, sequence (P29274 whole entry): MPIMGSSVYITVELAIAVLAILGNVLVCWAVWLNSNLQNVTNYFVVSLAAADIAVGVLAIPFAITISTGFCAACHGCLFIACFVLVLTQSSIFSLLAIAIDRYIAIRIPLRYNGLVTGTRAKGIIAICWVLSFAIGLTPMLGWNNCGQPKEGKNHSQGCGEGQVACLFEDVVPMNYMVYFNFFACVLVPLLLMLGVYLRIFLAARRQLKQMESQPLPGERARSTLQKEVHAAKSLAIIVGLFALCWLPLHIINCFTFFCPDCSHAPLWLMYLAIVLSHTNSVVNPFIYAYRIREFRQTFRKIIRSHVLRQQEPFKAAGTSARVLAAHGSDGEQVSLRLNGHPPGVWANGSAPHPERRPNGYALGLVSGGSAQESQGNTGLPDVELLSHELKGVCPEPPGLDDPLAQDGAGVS

Structure (SMILES): O=C(O)CC(O)(CC(=O)O)C(=O)O [CITRIC ACID]
- AC50 [1]: > 30 µM

Structure (SMILES): Cc1onc(-c2c(Cl)cccc2Cl)c1C(=O)N[C@@H]1C(=O)N2[C@@H]1SC(C)(C)[C@@H]2C(=O)O [DICLOXACILLIN]
- AC50 [1]: > 30 µM

Structure (SMILES): C[C@H]1O[C@@H](O[C@H]2[C@@H](O)C[C@H](O[C@H]3[C@@H](O)C[C@H](O[C@H]4CC[C@@]5(C)[C@H](CC[C@@H]6[C@@H]5CC[C@]5(C)[C@@H](C7=CC(=O)OC7)CC[C@]65O)C4)O[C@@H]3C)O[C@@H]2C)C[C@H](O)[C@@H]1O [DIGITOXIN]
- AC50 [1]: > 30 µM

Structure (SMILES): OC(CCCN1CCCCC1)(c1ccccc1)c1ccccc1 [DIPHENIDOL]
- AC50 [1]: > 30 µM

Structure (SMILES): C[C@@H](O)[C@H]1C(=O)N2C(C(=O)O)=C([C@H]3CCCO3)S[C@H]12 [FAROPENEM]
- AC50 [1]: > 30 µM

Structure (SMILES): COCCOc1cnc(NS(=O)(=O)c2ccccc2)nc1 [GLYMIDINE]
- AC50 [1]: > 30 µM

Structure (SMILES): CC(N)CCCC(C)(C)O (centres undefined) [HEPTAMINOL]
- AC50 [1]: > 30 µM

Structure (SMILES): CCC(=O)O[C@]1(C(=O)COC(C)=O)CC[C@H]2[C@@H]3CCC4=CC(=O)CC[C@]4(C)[C@H]3[C@@H](O)C[C@@]21C [HYDROCORTISONE ACEPONATE]
- AC50 [1]: > 30 µM

Structure (SMILES): O=[N+]([O-])O[C@H]1CO[C@H]2[C@@H]1OC[C@H]2O[N+](=O)[O-] [ISOSORBIDE DINITRATE]
- AC50 [1]: > 30 µM

Structure (SMILES): Cc1cc(CCN2CCN(c3cccc(Cl)c3)CC2)n[nH]1 [MEPIPRAZOLE]
- AC50 [1]: > 30 µM

Structure (SMILES): CC[N+](C)(CC)CCOC(=O)C1c2ccccc2Oc2ccccc21 [METHANTHELINE]
- AC50 [1]: > 30 µM

Structure (SMILES): CCOC(=O)[C@H](CCc1ccccc1)N[C@@H](C)C(=O)N1Cc2cc(OC)c(OC)cc2C[C@H]1C(=O)O [MOEXIPRIL]
- AC50 [1]: > 30 µM

Structure (SMILES): CC(c1ccc(Cl)c(Cl)c1)N1N=C(N)CC1=O (centres undefined) [MUZOLIMINE]
- AC50 [1]: > 30 µM

Structure (SMILES): CCN(CC)CCOC(=O)C(Cc1cccc2ccccc12)CC1CCCO1 (centres undefined) [NAFRONYL]
- AC50 [1]: > 30 µM

Structure (SMILES): N[C@@H](Cc1c[nH]c2ccc(O)cc12)C(=O)O [OXITRIPTAN]
- AC50 [1]: > 30 µM

Structure (SMILES): CNC(=O)Oc1ccc2c(c1)[C@]1(C)CCN(C)[C@@H]1N2C [PHYSOSTIGMINE]
- AC50 (Adenosine receptor A2a): > 30 µM
- AC50 [2]: > 30 µM
- AC50 [3]: > 30 µM
- AC50 [4]: > 30 µM
- AC50 [1]: > 30 µM
- AC50 [5]: > 30 µM
- AC50 [6]: > 30 µM
- AC50 [7]: > 30 µM
- AC50 [8]: > 30 µM
- AC50 [9]: > 30 µM
- AC50 (Melanocortin receptor 3): > 30 µM
- AC50 (Motilin receptor): > 30 µM
- AC50 [10]: > 30 µM
- AC50 [11]: 2.2 µM
- AC50 (Thromboxane A2 receptor): > 30 µM
- AC50 [12]: > 30 µM
- AC50 [13]: > 30 µM
- AC50 (D(3) dopamine receptor): > 30 µM

Structure (SMILES): C1CNCCN1 [PIPERAZINE]
- AC50 [1]: > 30 µM

Structure (SMILES): c1cc(CN2CCCNCCNCCCNCC2)ccc1CN1CCCNCCNCCCNCC1 [PLERIXAFOR]
- AC50 [1]: > 30 µM

Structure (SMILES): CO[C@H]1/C=C/O[C@@]2(C)Oc3c(C)c(O)c4c(O)c(cc(O)c4c3C2=O)NC(=O)/C(C)=C\C=C\[C@H](C)[C@H](O)[C@@H](C)[C@@H](O)[C@@H](C)[C@H](OC(C)=O)[C@@H]1C [RIFAMYCIN]
- AC50 [1]: > 30 µM

Structure (SMILES): CCCC(=O)O[C@H]1[C@H](C)O[C@@H](O[C@H]2[C@H](N(C)C)[C@@H](O)[C@H](O[C@H]3[C@@H](CC=O)C[C@@H](C)[C@@H](O)/C=C/C=C/C[C@@H](C)OC(=O)C[C@@H](O)[C@@H]3OC)O[C@@H]2C)C[C@@]1(C)OC(=O)CC [ROKITAMYCIN]
- AC50 [1]: > 30 µM

Structure (SMILES): O=C(Oc1ccccc1C(=O)O)c1ccccc1O [SALSALATE]
- AC50 [1]: > 30 µM

Structure (SMILES): COc1cc([C@@H]2c3cc4c(cc3[C@@H](O[C@@H]3O[C@@H]5CO[C@@H](c6cccs6)O[C@H]5[C@H](O)[C@H]3O)[C@H]3COC(=O)[C@H]23)OCO4)cc(OC)c1O [TENIPOSIDE]
- AC50 [1]: > 30 µM

Structure (SMILES): c1ccc2[nH]c(-c3cscn3)nc2c1 [THIABENDAZOLE]
- AC50 [1]: > 30 µM

Structure (SMILES): CCSc1ccc2c(c1)N(CCCN1CCN(C)CC1)c1ccccc1S2 [THIETHYLPERAZINE]
- AC50 (Adenosine receptor A2a): > 30 µM
- AC50 [2]: 2.2 µM
- AC50 [3]: > 30 µM
- AC50 [1]: > 30 µM
- AC50 (Melanocortin receptor 3): 18 µM
- AC50 [12]: 15 µM
- AC50 [13]: > 30 µM

- AC50 (Adenosine receptor A2a): > 10 µM
- AC50 [2]: 0.16 µM
- AC50 [3]: > 10 µM
- AC50 [4]: > 10 µM
- AC50 [5]: > 10 µM
- AC50 [6]: > 10 µM
- AC50 [7]: > 10 µM
- AC50 [8]: > 10 µM
- AC50 [9]: > 10 µM
- AC50 (Melanocortin receptor 3): > 10 µM
- AC50 (Motilin receptor): > 10 µM
- AC50 [10]: > 10 µM
- AC50 [11]: 1.94 µM
- AC50 (Thromboxane A2 receptor): > 10 µM
- AC50 [12]: 1 µM
- AC50 [13]: > 30 µM
- AC50 (D(3) dopamine receptor): 0.046 µM
Structure (SMILES): OCCN1CCN(CC/C=C2/c3ccccc3Sc3ccc(Cl)cc32)CC1 [ZUCLOPENTHIXOL]
